Test results reported in KR20110126596A, “자외선 방지제” (고쿠리츠 다이가쿠 호우징 지바 다이가쿠, priority 2008, dated 2010).

Tested on: RS cells [RS 세포]
Assay: MTT assay of UV (UVC) irradiation-induced cell damage in cultured human RS cells pretreated with the substance
Type: cell-based
Conditions: UV 14 J/m2; for resistance to UV-induced cell damage compared with cells cultured without addition (in words): EPH 1/10 or 1/100 (v/v), 1 day, 3 days after irradiation (Fig. 2)

## OCCOc1ccccc1 [페녹시에탄올]
Listed as EPH
  resistance to UV-induced cell damage compared with cells cultured without addition (in words): 높은 저항성을 나타내었다
Listed as 하이솔브 EPH
  resistance to UV-induced cell damage compared with cells cultured without addition (in words): 높은 저항성을 나타낸다
Phenoxyethanol added at 1/10 - 1/100 (v/v), 1 day pretreatment, MTT 3 days after irradiation
  resistance to cell damage by UV irradiation, compared with no addition: ≥ 2 fold
